Test results from patent US20090137658A1, “BENZENESULFONIC ACID SALT COMPOUNDS” (Tanabe Seiyaku Co.,Ltd., priority 2003, published 2009).
Entries after “also recorded” stand apart in the source; their conditions may differ.

Key:
Format in all cases: physicochemical
[1] = Moisture sorption testing of besylate monohydrate salt (integrated gas flow microbalance)
Protocol: Moisture sorption was measured with an integrated gas flow microbalance system. Approximately 20 mg of 4-({2-[(2S)-2-cyanopyrrolidinyl]-2-oxoethyl}amino)-N,N-dimethylcyclohexanecarboxamide besylate monohydrate salt was weighed into a sample pan of an integrated gas flow microbalance system (SGA100, VTI Corporation). The sample was dried at 60° C. under a dry nitrogen stream until the rate of weight loss was less than 0.015% in 5 minutes. After drying the sample was equilibrated at 25° C. and the relative humidity increased stepwise (adsorption) to 5, 15, 25, 35, 45, 55, 65, 75, 85 and 95% Each relative humidity step was held until the sample equilibrated at that condition. Equilibrium was defined as a weight change of less than 0.015% in 5 minutes. The relative humidity was then decreased step wise (desorption) to 90, 80, 70, 60, 50, 40, and 20% Each step was held until equilibrium was reached. The equilibrium condition was the same as in the sorption phase. The % w/w increase or decrease in moisture content of the sample is reported for each equilibrated RH condition.

[2] = Infrared (IR) studies of hydration/dehydration of besylate monohydrate
Protocol: The partially dehydrated form of the monohydrate Form 1 of Formula I is stable for at least 24 hours at room temperature and partial hydration to the monohydrate of Formula I can be recovered at higher relative humidity (RH).
Samples of trans-4-({2-[(2S)-2-cyanopyrrolidinyl]-2-oxoethyl}amino)-N,N-dimethylcyclohexane-carboxamide besylate monohydrate either as a pure solid or diluted in KBr powder were placed inside a FTIR spectrometer purged under dry N2 at room temperature (RT). […] Upon re-exposure of the partially dehydrated samples to the atmosphere for <1 min., the intensities of these IR bands are fully recovered. The FTIR spectrum of this experiment is in FIG. 4.

[3] = Hygroscopicity / deliquescence of crystalline salts at elevated relative humidity
From the text: This is exemplified by the hygroscopicity of the crystalline hydrochloride (HCl) salt of trans-4-({2-[(2S)-2-cyanopyrrolidinyl]-2-oxoethyl}amino)-N,N-dimethylcyclohexanecarboxamide. […] That is, the benzenesulfonic acid salts of the present invention sorb much lower amounts of water when exposed to a broad range of humidities and can be prepared in a physically stable crystal form, thus enhancing their suitability as medicaments.

[4] = Moisture sorption testing of besylate anhydrate salt (integrated vacuum microbalance); conditions: in the presence of water vapour, such as at elevated relative humidity
Protocol: Moisture sorption was measured with an integrated vacuum microbalance system. Approximately 11 mg of 4-({2-[(2S)-2-cyanopyrrolidinyl]-2-oxoethyl}amino)-N,N-dimethylcyclohexanecarboxamide besylate anhydrate salt was weighed into a sample pan of an integrated vacuum microbalance system (MB300G, VTI Corporation). The sample was dried at 60° C. under vacuum until the rate of weight loss was less than 0.015% in 2 minutes. After drying the sample was equilibrated at 25° C. and the relative humidity increased stepwise (adsorption) to 15, 25, 35, 45, 55, 65, 75, 85 and 95% Each relative humidity step was held until the sample equilibrated at that condition. Equilibrium was defined as a weight change of less than 0.015% in 2 minutes. The relative humidity was then decreased step wise (desorption) to 90, 80, 70, 60, 50, 40, 30 and 20% Each step was held until equilibrium was reached. The equilibrium condition was the same as in the sorption phase. The % w/w increase or decrease in moisture content of the sample is reported for each equilibrated RH condition.

[5] = purged under dry N2 at room temperature

SMILES: CN(C)C(=O)[C@H]1CC[C@H](NCC(=O)N2CCC[C@H]2C#N)CC1 [Form 1, trans-4-({2-[(2S)-2-cyanopyrrolidinyl]-2-oxoethyl}amino)-N,N-dimethylcyclohexanecarboxamide benzenesulfonate monohydrate]
- water absorbed ([1]; relative humidity between 0% and 95% at 25° C.): less than 10 % w/w
- additional water sorbed by the monohydrate ([1]; up to 95% relative humidity, on top of monohydrate water content): 1-2 % w/w
- desorption of adsorbed water ([1]; when the relative humidity is decreased): readily desorbs
- re-exposure time to the atmosphere after which IR bands are fully recovered ([2]; partially dehydrated samples re-exposed to the atmosphere): < 1 min
- time to reach dehydration equilibrium (IR bands of H2O) [2, 5]: ~30 min
- time within which IR bands assigned to H2O decreased very rapidly [2, 5]: ≤ 10 min
- stability of the partially dehydrated form ([2]; room temperature): at least 24 hours
- dehydration (loss of water) ([2]; room temperature, purged with or exposed to dried air or dry nitrogen (low relative humidity), benzenesulfonate monohydrate): loses water readily; also recorded: partial dehydration of the hydrate is facile
- re-hydration of the dehydrated form ([2]; upon exposure to atmospheric humidity / higher relative humidities, benzenesulfonate monohydrate): re-hydration occurs rapidly; also recorded: re-hydration to the monohydrate occurs very rapidly

SMILES: CN(C)C(=O)[C@H]1CC[C@H](NCC(=O)N2CCC[C@H]2C#N)CC1.Cl (relative stereo) [HCl salt, trans-4-({2-[(2S)-2-cyanopyrrolidinyl]-2-oxoethyl}-amino)-N,N-dimethylcyclohexanecarboxamide hydrochloride]
- time to deliquesce ([3]; 25° C., relative humidities greater than 75%): approximately 20 hours
- time to deliquesce ([3]; 40° C., relative humidities of greater than 75%): approximately 24 hours

SMILES: CN(C)C(=O)C1CCC(NCC(=O)N2CCC[C@H]2C#N)CC1.O=S(=O)(O)c1ccccc1 (stereo partly drawn) [Form 2, trans-4-({2-[(2S)-2-cyanopyrrolidinyl]-2-oxoethyl}amino)-N,N-dimethylcyclohexanecarboxamide besylate anhydrate]
- conversion of anhydrate form [4]: converts to the hydrate
